Reference: US12605451B2, “Targeted plasma protein degradation” (Novartis AG, priority 2020, dated 2026)
Like-named read-outs stand apart in the source and are kept apart here. Positions of bridges follow the written chain, without caps; N, C: chain ends. Non-standard residues stand in square brackets, D forms with d. Residues, ends and D or L forms follow the SMILES beside them. *: point of attachment. X6 = O=C(CCCO[C@@H]1OC(CO[C@H]2OC(CO[C@H]3OC(CO)[C@@H](O)C(O)C3C[C@H]3OC(COP(=O)(O)O)[C@@H](O)C(O)C3O)[C@@H](O)C(O)C2O)[C@@H](O)C(O[C@H]2OC(CO)[C@@H](O)C(O)C2O[C@H]2OC(COP(=O)(O)O)[C@@H](O)C(O)C2O)C1O)NNC(=O)CO/N=C/c1ccc(C(=O)*)cc1; X7 = O=C(OC[C@@H]1[C@@H]2CCc3c(nnn3CCCCCCO[C@H](O[C@@H](/C=N/OCCO[C@H]3O[C@H](CCP(=O)(O)O)[C@@H](O)[C@H](O)[C@@H]3O)CO)[C@H](O)/C=N\OCCO[C@H]3O[C@H](CCP(=O)(O)O)[C@@H](O)[C@H](O)[C@@H]3O)CC[C@@H]21)*; X1 = CC(=O)N[C@H]1[C@H]2OC[C@](COCCOCCOCCOCCn3cc(COCCNC(=O)CCOCCOCCOCCOCCC(=O)*)nn3)(O2)[C@H](O)[C@@H]1O; Bip = N[C@@H](Cc1ccc(-c2ccccc2)cc1)C(=O)O; NMeA = CN[C@@H](C)C(=O)O

What was measured:
[1] = biological target: M6PR (Homo sapiens, UniProt P11717); assay: SPR binding to M6P receptor
From the text: SPR was used to obtain the binding data for M6P receptor ligands compounds (int-CC6), either alone or as part of the bifunctional compound (BFC-2).

[2] = biological target: T1, human PCSK9 (Homo sapiens, UniProt Q8NBP7); assay: SPR binding to biotinylated human PCSK9 (Proteon XPR36); conditions: Bifunctional Compound; SPR; read-out: PCSK9 KD
T1 construct: Purified recombinant full length human PCSK9 with C-terminal biotinylated Avitag
Description: SPR was used to obtain the binding data for PCSK9 receptor ligand compound (C5), either alone or as part of the bifunctional compounds (BFC1), respectively.
SPR Binding experiments were performed on a Proteon XPR36 instrument (Bio-Rad Laboratories). Purified recombinant full length human PCSK9 with C-terminal biotinylated Avitag was used for the assay. Biotinylated human PCSK9 was incubated with fivefold molar excess of bifunctional compound (BFC1) or compound (C5), and immobilized onto a Neutravidin coated sensor chip. (NLC chip, Bio-Rad Laboratories, Inc). After conditioning the chip by injecting running buffer (20 mM Tris pH7.5, 300 mM NaCl, 25 mM CaCl2, 2 mM betamercaptoethanol, 2% DMSO and 0.05% Tween-20) at a flow rate of 0.1 mL/min for 240 s, PCSK9 protein was injected at a protein concentration of 0.02 mg/ml in running buffer with fivefold molar excess of bifunctional compound and a flow rate of 0.03 mL/min followed by 4 washes with running buffer with 1 μM of bifunctional compound (0.1 mL/min for 60 seconds each).
To perform sandwich SPR binding assays, His-ASGPR1 (62-291) protein stocks were diluted with running buffer to a desired concentration. ASGPR was injected at a flow rate of 0.1 mL/min for 240 s and allowed to dissociate for 1200 s. Sensorgrams were recorded for association and dissociation phases. All sensorgrams were processed by subtracting the binding response recorded from a blank control surfaces (or interspot surfaces), followed by subtracting buffer blank injections from the reaction surface. Data were processed with the ProteOn Manager software (version 3.1.0.6, Bio-Rad, Inc.).

[3] = biological target: T2, human ASGPR1 (Homo sapiens, UniProt P07306); assay: ASGPR1 SPR direct binding (Biacore, SA chip); conditions: Bifunctional Compound (PCSK9 series), Table 9, read-out: ASGPR binding KD
T2 construct: Recombinant extracellular domain of human ASGPR1 with N-terminal biotinylated Avitag
T2 sequence (P07306 62-291 limits assumed): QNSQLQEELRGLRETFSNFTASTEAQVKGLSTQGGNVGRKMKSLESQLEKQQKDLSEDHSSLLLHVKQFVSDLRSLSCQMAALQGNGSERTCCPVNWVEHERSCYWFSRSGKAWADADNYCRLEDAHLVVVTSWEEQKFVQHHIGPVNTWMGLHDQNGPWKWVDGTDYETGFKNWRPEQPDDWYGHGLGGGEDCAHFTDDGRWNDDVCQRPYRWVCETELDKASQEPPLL
Description: SPR was used to obtain the binding data for ASGP receptor ligand compound (int-CC2), either alone or as part of the bifunctional compounds (BFC-13), (BFC-15) and (BFC16).
(§1) ASGPR1 SPR experiments were performed on either Biacore T200 or Biacore 8K. The assay was optimized for Biacore (Streptavidin) SA chip in running buffer consisting of 20 mM HEPES, 300 mM NaCl, 2 mM CaCl2, 0.01% tween-20, 2% DMSO, pH 7.4. Recombinant extracellular domain of human ASGPR1 with N-terminal biotinylated Avitag was diluted to 20 μg/mL in running buffer, and immobilized onto SA chip after it was preconditioned with at least four 60-second injections at 30 uL/min of 1 M NaCl/40 mM NaOH solution. Protein immobilization level varied from 500 RU to 3500 RU dependent on analytes' molecular weight, for targeted Rmax of 30 RUs. Direct binding of analytes to ASGPR1 was observed when a dose response titration of analytes in 2% DMSO was flown over the immobilized protein. Data analysis was done on either Biacore T200 Evaluation Software or Biacore Insight Evaluation Software.
SPR was used to obtain the binding data for ASGP receptor ligand compounds (int-CC2), either alone or as part of the bifunctional compounds (BFC1).
as §1, with “Biacore” for “Biacore (Streptavidin)”

Chain of M6PR (P11717 whole entry): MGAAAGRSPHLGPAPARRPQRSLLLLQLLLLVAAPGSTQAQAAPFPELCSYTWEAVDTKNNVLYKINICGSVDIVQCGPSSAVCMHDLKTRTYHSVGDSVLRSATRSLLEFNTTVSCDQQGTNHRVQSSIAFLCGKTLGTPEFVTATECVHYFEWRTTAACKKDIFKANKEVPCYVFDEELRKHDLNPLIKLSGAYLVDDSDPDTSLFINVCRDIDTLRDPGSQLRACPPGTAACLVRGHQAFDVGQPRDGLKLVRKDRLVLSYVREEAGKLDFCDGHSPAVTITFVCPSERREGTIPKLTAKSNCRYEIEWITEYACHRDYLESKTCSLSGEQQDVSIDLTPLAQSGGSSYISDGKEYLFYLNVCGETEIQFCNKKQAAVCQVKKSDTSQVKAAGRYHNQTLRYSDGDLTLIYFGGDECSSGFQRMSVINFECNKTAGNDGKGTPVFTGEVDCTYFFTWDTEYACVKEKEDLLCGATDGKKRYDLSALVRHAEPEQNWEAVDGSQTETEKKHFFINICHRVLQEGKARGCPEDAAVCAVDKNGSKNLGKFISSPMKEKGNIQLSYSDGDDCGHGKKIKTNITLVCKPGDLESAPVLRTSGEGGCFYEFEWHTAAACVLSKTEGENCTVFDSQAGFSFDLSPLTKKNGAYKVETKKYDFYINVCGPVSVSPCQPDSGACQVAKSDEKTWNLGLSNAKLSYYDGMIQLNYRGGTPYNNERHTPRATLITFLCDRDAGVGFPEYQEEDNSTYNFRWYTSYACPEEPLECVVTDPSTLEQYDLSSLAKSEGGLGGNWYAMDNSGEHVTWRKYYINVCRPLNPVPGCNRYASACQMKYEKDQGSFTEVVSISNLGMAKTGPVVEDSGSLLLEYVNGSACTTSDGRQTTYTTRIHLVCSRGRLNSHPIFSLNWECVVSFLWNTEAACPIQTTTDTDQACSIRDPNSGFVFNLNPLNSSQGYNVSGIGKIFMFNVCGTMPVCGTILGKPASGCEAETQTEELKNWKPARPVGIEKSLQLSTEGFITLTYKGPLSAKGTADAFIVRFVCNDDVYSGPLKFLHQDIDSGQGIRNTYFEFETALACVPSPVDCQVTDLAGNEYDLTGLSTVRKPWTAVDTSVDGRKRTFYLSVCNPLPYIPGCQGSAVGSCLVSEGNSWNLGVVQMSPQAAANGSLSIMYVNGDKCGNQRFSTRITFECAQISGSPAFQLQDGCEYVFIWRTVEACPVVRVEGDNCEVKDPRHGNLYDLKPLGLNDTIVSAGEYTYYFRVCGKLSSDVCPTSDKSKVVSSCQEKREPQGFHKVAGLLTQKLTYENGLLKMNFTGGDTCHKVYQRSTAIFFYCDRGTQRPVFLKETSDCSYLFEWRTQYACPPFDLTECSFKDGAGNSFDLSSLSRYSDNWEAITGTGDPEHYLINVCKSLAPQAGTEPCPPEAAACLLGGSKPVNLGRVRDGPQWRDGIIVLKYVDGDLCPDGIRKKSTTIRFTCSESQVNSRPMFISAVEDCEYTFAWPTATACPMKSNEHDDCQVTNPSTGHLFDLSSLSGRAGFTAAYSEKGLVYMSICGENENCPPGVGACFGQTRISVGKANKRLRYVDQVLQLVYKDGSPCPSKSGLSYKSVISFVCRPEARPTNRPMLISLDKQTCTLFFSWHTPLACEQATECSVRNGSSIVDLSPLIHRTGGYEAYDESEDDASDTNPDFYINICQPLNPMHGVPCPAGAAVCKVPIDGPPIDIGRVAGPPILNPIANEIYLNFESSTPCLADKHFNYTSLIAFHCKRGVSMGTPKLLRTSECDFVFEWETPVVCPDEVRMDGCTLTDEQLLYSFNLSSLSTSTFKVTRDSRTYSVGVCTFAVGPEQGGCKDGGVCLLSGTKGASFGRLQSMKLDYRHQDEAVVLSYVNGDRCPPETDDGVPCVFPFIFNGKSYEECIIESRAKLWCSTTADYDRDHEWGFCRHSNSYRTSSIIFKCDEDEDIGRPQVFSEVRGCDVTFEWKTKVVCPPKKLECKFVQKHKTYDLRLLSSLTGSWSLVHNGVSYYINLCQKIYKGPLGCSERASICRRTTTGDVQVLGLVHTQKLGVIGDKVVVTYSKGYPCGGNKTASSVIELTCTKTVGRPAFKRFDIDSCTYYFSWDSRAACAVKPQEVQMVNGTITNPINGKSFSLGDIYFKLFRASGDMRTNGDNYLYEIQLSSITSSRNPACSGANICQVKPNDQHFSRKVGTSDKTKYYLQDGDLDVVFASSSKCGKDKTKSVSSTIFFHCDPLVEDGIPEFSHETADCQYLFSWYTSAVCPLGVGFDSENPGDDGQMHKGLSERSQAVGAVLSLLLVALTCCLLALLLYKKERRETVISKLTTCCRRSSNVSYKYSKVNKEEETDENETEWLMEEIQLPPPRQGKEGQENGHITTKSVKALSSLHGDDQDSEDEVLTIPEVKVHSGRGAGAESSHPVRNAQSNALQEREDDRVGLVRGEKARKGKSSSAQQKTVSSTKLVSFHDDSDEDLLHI
T1 sequence (Q8NBP7 153-692): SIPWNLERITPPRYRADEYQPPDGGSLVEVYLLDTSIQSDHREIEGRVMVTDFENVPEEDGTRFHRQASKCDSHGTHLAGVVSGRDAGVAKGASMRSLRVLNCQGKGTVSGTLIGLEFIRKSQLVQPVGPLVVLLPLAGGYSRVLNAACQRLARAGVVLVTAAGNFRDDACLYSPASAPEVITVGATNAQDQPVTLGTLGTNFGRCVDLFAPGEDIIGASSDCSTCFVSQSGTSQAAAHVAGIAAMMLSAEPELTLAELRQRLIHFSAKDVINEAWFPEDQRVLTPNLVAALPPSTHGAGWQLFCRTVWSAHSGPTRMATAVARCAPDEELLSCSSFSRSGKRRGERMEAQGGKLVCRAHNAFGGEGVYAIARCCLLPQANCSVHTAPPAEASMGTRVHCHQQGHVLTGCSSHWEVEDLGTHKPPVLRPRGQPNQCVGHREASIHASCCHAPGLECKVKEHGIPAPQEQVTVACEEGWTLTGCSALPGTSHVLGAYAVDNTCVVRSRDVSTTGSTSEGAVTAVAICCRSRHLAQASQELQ

SMILES	Kd [1]	Kd ([1]; Free Ligand, SPR, read-out: M6PR binding KD)	Kd [2]	Kd [3]
CC(C)[C@@H]1NC(=O)[C@H](Cc2ccccc2)NC(=O)CSC[C@@H](C(=O)NCC(=O)N[C@@H](CCCCNC(=O)OC[C@@H]2[C@@H]3CCc4c(nnn4CCCCCCO[C@H](O[C@@H](/C=N/OCCO[C@H]4O[C@H](CCP(=O)(O)O)[C@@H](O)[C@H](O)[C@@H]4O)CO)[C@H](O)/C=N\OCCO[C@H]4O[C@H](CCP(=O)(O)O)[C@@H](O)[C@H](O)[C@@H]4O)CC[C@@H]32)C(N)=O)NC(=O)[C@@H]2CCCN2C(=O)[C@H](C)NC(=O)[C@H](CCC(=O)O)NC(=O)[C@H](C)N(C)C(=O)[C@H](Cc2ccc(-c3ccccc3)cc2)NC(=O)[C@H](C)N(C)C(=O)[C@H](Cc2ccc(-c3ccccc3)cc2)NC(=O)[C@H]([C@@H](C)O)NC(=O)[C@H]([C@@H](C)O)NC(=O)[C@@H]2CCCN2C1=O [BFC-4] ({CH2CO}-FVPTT[Bip][NMeA][Bip][NMeA]EAPCGK(X7)-NH2; thioether N-13)	110 nM			
CC(C)[C@@H]1NC(=O)[C@H](Cc2ccccc2)NC(=O)CSC[C@@H](C(=O)NCC(=O)N[C@@H](CCCCNC(=O)c2ccc(/C=N/OCC(=O)NNC(=O)CCCO[C@@H]3OC(CO[C@H]4OC(CO[C@H]5OC(CO)[C@@H](O)C(O)C5C[C@H]5OC(COP(=O)(O)O)[C@@H](O)C(O)C5O)[C@@H](O)C(O)C4O)[C@@H](O)C(O[C@H]4OC(CO)[C@@H](O)C(O)C4O[C@H]4OC(COP(=O)(O)O)[C@@H](O)C(O)C4O)C3O)cc2)C(N)=O)NC(=O)[C@@H]2CCCN2C(=O)[C@H](C)NC(=O)[C@H](CCC(=O)O)NC(=O)[C@H](C)N(C)C(=O)[C@H](Cc2ccc(-c3ccccc3)cc2)NC(=O)[C@H](C)N(C)C(=O)[C@H](Cc2ccc(-c3ccccc3)cc2)NC(=O)[C@H]([C@@H](C)O)NC(=O)[C@H]([C@@H](C)O)NC(=O)[C@@H]2CCCN2C1=O (stereo partly shown) [BFC-2] ({CH2CO}-FVPTT[Bip][NMeA][Bip][NMeA]EAPCGK(X6)-NH2; thioether N-13)	7.19 nM			
NOCC(=O)NNC(=O)CCCO[C@@H]1OC(CO[C@H]2OC(CO[C@H]3OC(CO)[C@@H](O)[C@H](O)C3O[C@H]3OC(COP(=O)(O)O)[C@@H](O)C(O)[C@H]3O)[C@@H](O)[C@H](O)C2O)[C@@H](O)[C@H](O[C@H]2OC(CO)[C@@H](O)C(O)[C@H]2O[C@H]2OC(COP(=O)(O)O)[C@@H](O)C(O)[C@H]2O)C1O (stereo partly shown) [int-CC6]		0.327 nM		
CC(=O)N[C@H]1[C@H]2OC[C@](COCCOCCOCCOCCn3cc(COCCNC(=O)CCOCCOCCOCCOCCC(=O)NCCCC[C@H](NC(=O)CNC(=O)[C@@H]4CSCC(=O)N[C@@H](Cc5ccccc5)C(=O)N[C@@H](C(C)C)C(=O)N5CCC[C@H]5C(=O)N[C@@H]([C@@H](C)O)C(=O)N[C@@H]([C@@H](C)O)C(=O)N[C@@H](Cc5ccc(-c6ccccc6)cc5)C(=O)N(C)[C@@H](C)C(=O)N[C@@H](Cc5ccc(-c6ccccc6)cc5)C(=O)N(C)[C@@H](C)C(=O)N[C@@H](CCC(=O)O)C(=O)N[C@@H](C)C(=O)N5CCC[C@H]5C(=O)N4)C(N)=O)nn3)(O2)[C@H](O)[C@@H]1O [BFC-5] ({CH2CO}-FVPTT[Bip][NMeA][Bip][NMeA]EAPCGK(X1)-NH2; thioether N-13)			4.6 nM	90 nM
CC(=O)N[C@H]1[C@H]2OC[C@](COCCOCCOCCOCCn3cc(COCC(COCc4cn(CCOCCOCCOCCOC[C@@]56CO[C@@H](O5)[C@H](NC(C)=O)[C@@H](O)[C@H]6O)nn4)(COCc4cn(CCOCCOCCOCCOC[C@@]56CO[C@@H](O5)[C@H](NC(C)=O)[C@@H](O)[C@H]6O)nn4)NC(=O)CCOCCOCCOCCOCCC(=O)NCCCC[C@H](NC(=O)CNC(=O)[C@@H]4CSCC(=O)N[C@@H](Cc5ccccc5)C(=O)N[C@@H](C(C)C)C(=O)N5CCC[C@H]5C(=O)N[C@@H]([C@@H](C)O)C(=O)N[C@@H]([C@@H](C)O)C(=O)N[C@@H](Cc5ccc(-c6ccccc6)cc5)C(=O)N(C)[C@@H](C)C(=O)N[C@@H](Cc5ccc(-c6ccccc6)cc5)C(=O)N(C)[C@@H](C)C(=O)N[C@@H](CCC(=O)O)C(=O)N[C@@H](C)C(=O)N5CCC[C@H]5C(=O)N4)C(N)=O)nn3)(O2)[C@H](O)[C@@H]1O [BFC-6]			5.8 nM	< 1 nM
